# Values of other authors in patent US20060233724A1, “Medicinal composition for peridontal pocket administration containing bisphosphonic acid derivative or its salt as the active ingredient” (Toray Industries, Inc., priority 2002, published 2006).
# Read-outs that look alike come from different tables or passages of the source.
# What was measured:
# [1] = tested on: destruction of alveolar bone; settings: canine periodontal disease model, oral administration
# [2] = tested on: destruction of alveolar bone; settings: simian periodontal disease model, oral administration
# [3] = tested on: experimental movement of molars; settings: rat
# [4] = tested on: involution of alveolar bone; settings: hamster periodontal disease models
# [5] = tested on: involution of alveolar bone, attachment level; settings: canine periodontal disease models, subcutaneous or oral administration
structure (smiles),measurement,setting,value
"NCCCC(O)(P(=O)(O)O)P(=O)(O)O [alendronate, 4-amino-1-hydroxybutylidene-1,1-bisphosphonic acid]",destruction of alveolar bone,[1],inhibited destruction of alveolar bone
same,destruction of alveolar bone,[2],inhibited destruction of alveolar bone
"O=P(O)(O)C(O)(Cc1cccnc1)P(=O)(O)O [risedronate, 1-hydroxy-2-(3-pyridyl)ethylidene-1,1-bisphosphonic acid]",effect in experimental movement of molars,[3]; local administration to the vicinity of first molar,effective
NCCC(O)(P(=O)(O)O)P(=O)(O)O [pamidronate],effect in experimental movement of molars,[3]; local submucosal administration to the palate,effective
"O=P(O)(O)C(NC1CCCCCC1)P(=O)(O)O [Incadronate disodium, 1-(cycloheptylamino) methylidene-1,1-bisphosphonic acid]",involution of alveolar bone,[4],exhibits inhibiting action against involution of alveolar bone
same,attachment level,[5],action of improvement in attachment level
same,involution of alveolar bone,[5],action against involution of alveolar bone
